Laboratory results from the NIST ThermoML archive (doi:10.1021/je900672g).
± gives the expanded uncertainty stated by the source.

Assay: isobaric coefficient of expansion
Settings: 298.15 K; 10000 kPa; Liquid; DSC

Structure (SMILES) | isobaric coefficient of expansion
O=[N+]([O-])c1ccccc1 [nitrobenzene] | 0.000808 ± 2e-05 1/K
CC[N+](=O)[O-] [nitroethane] | 0.00112 ± 2.7e-05 1/K
C[N+](=O)[O-] [nitromethane] | 0.00118 ± 2.9e-05 1/K
CCC#N [propanenitrile] | 0.00123 ± 3e-05 1/K

Same assay, conditions: 298.15 K; 15000 kPa; Liquid; DSC

Structure (SMILES) | isobaric coefficient of expansion
CCC[N+](=O)[O-] [1-nitropropane] | 0.00103 ± 2.5e-05 1/K
N#Cc1ccccc1 [benzonitrile] | 0.000825 ± 2e-05 1/K
O=[N+]([O-])c1ccccc1 [nitrobenzene] | 0.0008 ± 2e-05 1/K
CC[N+](=O)[O-] [nitroethane] | 0.0011 ± 2.7e-05 1/K
C[N+](=O)[O-] [nitromethane] | 0.00116 ± 2.8e-05 1/K
CCC#N [propanenitrile] | 0.0012 ± 2.9e-05 1/K

Same assay, conditions: 298.15 K; 20000 kPa; Liquid; DSC

Structure (SMILES) | isobaric coefficient of expansion
CCC[N+](=O)[O-] [1-nitropropane] | 0.001 ± 2.5e-05 1/K
N#Cc1ccccc1 [benzonitrile] | 0.000809 ± 2e-05 1/K
O=[N+]([O-])c1ccccc1 [nitrobenzene] | 0.000785 ± 1.9e-05 1/K
CC[N+](=O)[O-] [nitroethane] | 0.00107 ± 2.6e-05 1/K
C[N+](=O)[O-] [nitromethane] | 0.00113 ± 2.8e-05 1/K
CCC#N [propanenitrile] | 0.00117 ± 2.9e-05 1/K

Same assay, conditions: 298.15 K; 25000 kPa; Liquid; DSC

Structure (SMILES) | isobaric coefficient of expansion
CCC[N+](=O)[O-] [1-nitropropane] | 0.000977 ± 2.4e-05 1/K
N#Cc1ccccc1 [benzonitrile] | 0.000798 ± 2e-05 1/K
O=[N+]([O-])c1ccccc1 [nitrobenzene] | 0.000772 ± 1.9e-05 1/K
CC[N+](=O)[O-] [nitroethane] | 0.00105 ± 2.6e-05 1/K
C[N+](=O)[O-] [nitromethane] | 0.00111 ± 2.7e-05 1/K
CCC#N [propanenitrile] | 0.00113 ± 2.8e-05 1/K

Same assay, conditions: 298.15 K; 30000 kPa; Liquid; DSC

Structure (SMILES) | isobaric coefficient of expansion
CCC[N+](=O)[O-] [1-nitropropane] | 0.000958 ± 2.3e-05 1/K
N#Cc1ccccc1 [benzonitrile] | 0.000788 ± 1.9e-05 1/K
O=[N+]([O-])c1ccccc1 [nitrobenzene] | 0.000762 ± 1.9e-05 1/K
CC[N+](=O)[O-] [nitroethane] | 0.00103 ± 2.5e-05 1/K
C[N+](=O)[O-] [nitromethane] | 0.00109 ± 2.7e-05 1/K
CCC#N [propanenitrile] | 0.00111 ± 2.7e-05 1/K

Same assay, conditions: 298.15 K; 35000 kPa; Liquid; DSC

Structure (SMILES) | isobaric coefficient of expansion
CCC[N+](=O)[O-] [1-nitropropane] | 0.000941 ± 2.3e-05 1/K
N#Cc1ccccc1 [benzonitrile] | 0.000775 ± 1.9e-05 1/K
O=[N+]([O-])c1ccccc1 [nitrobenzene] | 0.000752 ± 1.8e-05 1/K
CC[N+](=O)[O-] [nitroethane] | 0.00101 ± 2.5e-05 1/K
C[N+](=O)[O-] [nitromethane] | 0.00107 ± 2.6e-05 1/K
CCC#N [propanenitrile] | 0.00108 ± 2.6e-05 1/K

Same assay, conditions: 298.15 K; 40000 kPa; Liquid; DSC

Structure (SMILES) | isobaric coefficient of expansion
CCC[N+](=O)[O-] [1-nitropropane] | 0.00092 ± 2.3e-05 1/K
N#Cc1ccccc1 [benzonitrile] | 0.000773 ± 1.9e-05 1/K
O=[N+]([O-])c1ccccc1 [nitrobenzene] | 0.000742 ± 1.8e-05 1/K
CC[N+](=O)[O-] [nitroethane] | 0.000993 ± 2.4e-05 1/K
C[N+](=O)[O-] [nitromethane] | 0.00105 ± 2.6e-05 1/K
CCC#N [propanenitrile] | 0.00105 ± 2.6e-05 1/K

Same assay, conditions: 298.15 K; 45000 kPa; Liquid; DSC

Structure (SMILES) | isobaric coefficient of expansion
CCC[N+](=O)[O-] [1-nitropropane] | 0.000904 ± 2.2e-05 1/K
N#Cc1ccccc1 [benzonitrile] | 0.000759 ± 1.9e-05 1/K
O=[N+]([O-])c1ccccc1 [nitrobenzene] | 0.000731 ± 1.8e-05 1/K
CC[N+](=O)[O-] [nitroethane] | 0.000973 ± 2.4e-05 1/K
C[N+](=O)[O-] [nitromethane] | 0.00103 ± 2.5e-05 1/K
CCC#N [propanenitrile] | 0.00103 ± 2.5e-05 1/K

Same assay, conditions: 298.15 K; 50000 kPa; Liquid; DSC

Structure (SMILES) | isobaric coefficient of expansion
CCC[N+](=O)[O-] [1-nitropropane] | 0.000889 ± 2.2e-05 1/K
N#Cc1ccccc1 [benzonitrile] | 0.000749 ± 1.8e-05 1/K
O=[N+]([O-])c1ccccc1 [nitrobenzene] | 0.000722 ± 1.8e-05 1/K
CC[N+](=O)[O-] [nitroethane] | 0.00096 ± 2.4e-05 1/K
C[N+](=O)[O-] [nitromethane] | 0.00101 ± 2.5e-05 1/K
CCC#N [propanenitrile] | 0.00101 ± 2.5e-05 1/K

Same assay, conditions: 298.15 K; 55000 kPa; Liquid; DSC

Structure (SMILES) | isobaric coefficient of expansion
CCC[N+](=O)[O-] [1-nitropropane] | 0.000875 ± 2.1e-05 1/K
O=[N+]([O-])c1ccccc1 [nitrobenzene] | 0.000714 ± 1.7e-05 1/K
CC[N+](=O)[O-] [nitroethane] | 0.000941 ± 2.3e-05 1/K
C[N+](=O)[O-] [nitromethane] | 0.000998 ± 2.4e-05 1/K
CCC#N [propanenitrile] | 0.000993 ± 2.4e-05 1/K

Same assay, conditions: 308.15 K; 5000 kPa; Liquid; DSC

Structure (SMILES) | isobaric coefficient of expansion
CCC[N+](=O)[O-] [1-nitropropane] | 0.00109 ± 2.7e-05 1/K
N#Cc1ccccc1 [benzonitrile] | 0.000852 ± 2.1e-05 1/K
O=[N+]([O-])c1ccccc1 [nitrobenzene] | 0.000827 ± 2e-05 1/K
CC[N+](=O)[O-] [nitroethane] | 0.00117 ± 2.9e-05 1/K
C[N+](=O)[O-] [nitromethane] | 0.00123 ± 3e-05 1/K
CCC#N [propanenitrile] | 0.0013 ± 3.2e-05 1/K

Same assay, conditions: 308.15 K; 10000 kPa; Liquid; DSC

Structure (SMILES) | isobaric coefficient of expansion
CCC[N+](=O)[O-] [1-nitropropane] | 0.00106 ± 2.6e-05 1/K
N#Cc1ccccc1 [benzonitrile] | 0.000842 ± 2.1e-05 1/K
O=[N+]([O-])c1ccccc1 [nitrobenzene] | 0.000812 ± 2e-05 1/K
CC[N+](=O)[O-] [nitroethane] | 0.00114 ± 2.8e-05 1/K
C[N+](=O)[O-] [nitromethane] | 0.0012 ± 2.9e-05 1/K
CCC#N [propanenitrile] | 0.00126 ± 3.1e-05 1/K

Same assay, conditions: 308.15 K; 15000 kPa; Liquid; DSC

Structure (SMILES) | isobaric coefficient of expansion
CCC[N+](=O)[O-] [1-nitropropane] | 0.00104 ± 2.5e-05 1/K
N#Cc1ccccc1 [benzonitrile] | 0.000827 ± 2e-05 1/K
O=[N+]([O-])c1ccccc1 [nitrobenzene] | 0.000799 ± 2e-05 1/K
CC[N+](=O)[O-] [nitroethane] | 0.00111 ± 2.7e-05 1/K
C[N+](=O)[O-] [nitromethane] | 0.00118 ± 2.9e-05 1/K
CCC#N [propanenitrile] | 0.00121 ± 3e-05 1/K

Same assay, conditions: 308.15 K; 20000 kPa; Liquid; DSC

Structure (SMILES) | isobaric coefficient of expansion
CCC[N+](=O)[O-] [1-nitropropane] | 0.00101 ± 2.5e-05 1/K
N#Cc1ccccc1 [benzonitrile] | 0.000814 ± 2e-05 1/K
O=[N+]([O-])c1ccccc1 [nitrobenzene] | 0.000787 ± 1.9e-05 1/K
CC[N+](=O)[O-] [nitroethane] | 0.00109 ± 2.7e-05 1/K
C[N+](=O)[O-] [nitromethane] | 0.00115 ± 2.8e-05 1/K
CCC#N [propanenitrile] | 0.00118 ± 2.9e-05 1/K

Same assay, conditions: 308.15 K; 25000 kPa; Liquid; DSC

Structure (SMILES) | isobaric coefficient of expansion
CCC[N+](=O)[O-] [1-nitropropane] | 0.000986 ± 2.4e-05 1/K
N#Cc1ccccc1 [benzonitrile] | 0.000799 ± 2e-05 1/K
O=[N+]([O-])c1ccccc1 [nitrobenzene] | 0.000773 ± 1.9e-05 1/K
CC[N+](=O)[O-] [nitroethane] | 0.00106 ± 2.6e-05 1/K
C[N+](=O)[O-] [nitromethane] | 0.00112 ± 2.7e-05 1/K
CCC#N [propanenitrile] | 0.00114 ± 2.8e-05 1/K

Same assay, conditions: 308.15 K; 30000 kPa; Liquid; DSC

Structure (SMILES) | isobaric coefficient of expansion
CCC[N+](=O)[O-] [1-nitropropane] | 0.000963 ± 2.4e-05 1/K
N#Cc1ccccc1 [benzonitrile] | 0.000788 ± 1.9e-05 1/K
O=[N+]([O-])c1ccccc1 [nitrobenzene] | 0.00076 ± 1.9e-05 1/K
CC[N+](=O)[O-] [nitroethane] | 0.00104 ± 2.5e-05 1/K
C[N+](=O)[O-] [nitromethane] | 0.0011 ± 2.7e-05 1/K
CCC#N [propanenitrile] | 0.00111 ± 2.7e-05 1/K

Same assay, conditions: 308.15 K; 35000 kPa; Liquid; DSC

Structure (SMILES) | isobaric coefficient of expansion
CCC[N+](=O)[O-] [1-nitropropane] | 0.000945 ± 2.3e-05 1/K
N#Cc1ccccc1 [benzonitrile] | 0.000773 ± 1.9e-05 1/K
O=[N+]([O-])c1ccccc1 [nitrobenzene] | 0.00075 ± 1.8e-05 1/K
CC[N+](=O)[O-] [nitroethane] | 0.00102 ± 2.5e-05 1/K
C[N+](=O)[O-] [nitromethane] | 0.00108 ± 2.6e-05 1/K
CCC#N [propanenitrile] | 0.00109 ± 2.7e-05 1/K

Same assay, conditions: 308.15 K; 40000 kPa; Liquid; DSC

Structure (SMILES) | isobaric coefficient of expansion
CCC[N+](=O)[O-] [1-nitropropane] | 0.000921 ± 2.3e-05 1/K
N#Cc1ccccc1 [benzonitrile] | 0.000765 ± 1.9e-05 1/K
O=[N+]([O-])c1ccccc1 [nitrobenzene] | 0.000737 ± 1.8e-05 1/K
CC[N+](=O)[O-] [nitroethane] | 0.000994 ± 2.4e-05 1/K
C[N+](=O)[O-] [nitromethane] | 0.00105 ± 2.6e-05 1/K
CCC#N [propanenitrile] | 0.00106 ± 2.6e-05 1/K

Same assay, conditions: 308.15 K; 45000 kPa; Liquid; DSC

Structure (SMILES) | isobaric coefficient of expansion
CCC[N+](=O)[O-] [1-nitropropane] | 0.000906 ± 2.2e-05 1/K
N#Cc1ccccc1 [benzonitrile] | 0.000755 ± 1.9e-05 1/K
O=[N+]([O-])c1ccccc1 [nitrobenzene] | 0.000728 ± 1.8e-05 1/K
CC[N+](=O)[O-] [nitroethane] | 0.000977 ± 2.4e-05 1/K
C[N+](=O)[O-] [nitromethane] | 0.00103 ± 2.5e-05 1/K
CCC#N [propanenitrile] | 0.00104 ± 2.5e-05 1/K

Same assay, conditions: 308.15 K; 50000 kPa; Liquid; DSC

Structure (SMILES) | isobaric coefficient of expansion
CCC[N+](=O)[O-] [1-nitropropane] | 0.000891 ± 2.2e-05 1/K
N#Cc1ccccc1 [benzonitrile] | 0.000743 ± 1.8e-05 1/K
O=[N+]([O-])c1ccccc1 [nitrobenzene] | 0.000719 ± 1.8e-05 1/K
CC[N+](=O)[O-] [nitroethane] | 0.000961 ± 2.4e-05 1/K
C[N+](=O)[O-] [nitromethane] | 0.00102 ± 2.5e-05 1/K
CCC#N [propanenitrile] | 0.00101 ± 2.5e-05 1/K

Same assay, conditions: 308.15 K; 55000 kPa; Liquid; DSC

Structure (SMILES) | isobaric coefficient of expansion
CCC[N+](=O)[O-] [1-nitropropane] | 0.000873 ± 2.1e-05 1/K
O=[N+]([O-])c1ccccc1 [nitrobenzene] | 0.00071 ± 1.7e-05 1/K
CC[N+](=O)[O-] [nitroethane] | 0.000942 ± 2.3e-05 1/K
C[N+](=O)[O-] [nitromethane] | 0.001 ± 2.5e-05 1/K
CCC#N [propanenitrile] | 0.000994 ± 2.4e-05 1/K

Same assay, conditions: 318.15 K; 5000 kPa; Liquid; DSC

Structure (SMILES) | isobaric coefficient of expansion
CCC[N+](=O)[O-] [1-nitropropane] | 0.00113 ± 2.8e-05 1/K
N#Cc1ccccc1 [benzonitrile] | 0.000857 ± 2.1e-05 1/K
O=[N+]([O-])c1ccccc1 [nitrobenzene] | 0.000832 ± 2e-05 1/K
CC[N+](=O)[O-] [nitroethane] | 0.00119 ± 2.9e-05 1/K
C[N+](=O)[O-] [nitromethane] | 0.00126 ± 3.1e-05 1/K
